How the values were obtained:
Conditions in all cases: 72 h
Caco-2 [1] = test: cell viability relative to DMSO; higher = less toxic
Calu-3 [2] = test: as above
HepG2 [3] = test: as above
U2OS [4] = test: as above
Vero E6 [5] = test: as above
Caco-2 [6] = test: relative viability EC50 (midpoint between 100% and the lowest measured viability); higher = less toxic
Calu-3 [7] = test: as above
HepG2 [8] = test: as above
U2OS [9] = test: as above
Vero E6 [10] = test: as above
Caco-2 [11] = test: drug sensitivity score (DSS) for viability; higher = more toxic; extreme values may be limits of the assay
Calu-3 [12] = test: as above
HepG2 [13] = test: as above
U2OS [14] = test: as above
Vero E6 [15] = test: as above

| SMILES | cell viability (Caco-2 [1]; 1 nM) [%] | cell viability (Caco-2 [1]; 10 nM) [%] | cell viability (Caco-2 [1]; 100 nM) [%] | cell viability (Caco-2 [1]; 1000 nM) [%] | cell viability (Caco-2 [1]; 10000 nM) [%] | cell viability (Calu-3 [2]; 1 nM) [%] | cell viability (Calu-3 [2]; 10 nM) [%] | cell viability (Calu-3 [2]; 100 nM) [%] | cell viability (Calu-3 [2]; 1000 nM) [%] | cell viability (Calu-3 [2]; 10000 nM) [%] | cell viability (HepG2 [3]; 1 nM) [%] | cell viability (HepG2 [3]; 10 nM) [%] | cell viability (HepG2 [3]; 100 nM) [%] | cell viability (HepG2 [3]; 1000 nM) [%] | cell viability (HepG2 [3]; 10000 nM) [%] | cell viability (U2OS [4]; 1 nM) [%] | cell viability (U2OS [4]; 10 nM) [%] | cell viability (U2OS [4]; 100 nM) [%] | cell viability (U2OS [4]; 1000 nM) [%] | cell viability (U2OS [4]; 10000 nM) [%] | cell viability (Vero E6 [5]; 1 nM) [%] | cell viability (Vero E6 [5]; 10 nM) [%] | cell viability (Vero E6 [5]; 100 nM) [%] | cell viability (Vero E6 [5]; 1000 nM) [%] | cell viability (Vero E6 [5]; 10000 nM) [%] | relative viability EC50 (Caco-2 [6]) [µM] | relative viability EC50 (Calu-3 [7]) [µM] | relative viability EC50 (HepG2 [8]) [µM] | relative viability EC50 (U2OS [9]) [µM] | relative viability EC50 (Vero E6 [10]) [µM] | drug sensitivity score (Caco-2 [11]) | drug sensitivity score (Calu-3 [12]) | drug sensitivity score (HepG2 [13]) | drug sensitivity score (U2OS [14]) | drug sensitivity score (Vero E6 [15]) |
| --- | --- | --- | --- | --- | --- | --- | --- | --- | --- | --- | --- | --- | --- | --- | --- | --- | --- | --- | --- | --- | --- | --- | --- | --- | --- | --- | --- | --- | --- | --- | --- | --- | --- | --- | --- |
| CC(C)c1ccc(CC(=O)N2CCC[C@@H](c3cccc(OC(C)(C)C(=O)O)c3)C2)cc1 | 92.6 | 100 | 93.2 | 97.6 | 96.2 | 87.3 | 94.5 | 104 | 108 | 98.6 | 98.3 | 106 | 104 | 106 | 108 | 103 | 99.5 | 99.7 | 99.6 | 103 | 106 | 103 | 101 | 97.4 | 96.8 | > 10 | > 10 | > 10 | > 10 | > 10 | 0 | 0 | 0 | 0 | 0 |
| CC(O)(C(=O)Nc1ccc(S(=O)(=O)c2ccccc2)cc1)C(F)(F)F (stereo not drawn) | 94.9 | 90.6 | 97 | 107 | 95.9 | 101 | 98.1 | 99.8 | 82.2 | 89.1 | 100 | 90.8 | 96.4 | 102 | 109 | 99.2 | 100 | 97.4 | 104 | 102 | 98.4 | 93.1 | 97.9 | 89.6 | 95.3 | > 10 | > 10 | > 10 | > 10 | > 10 | 0 | 2.1 | 0 | 0 | 0 |
| CC1(C)CCC(C)(C)c2c1cc(C(=O)Nc1cc(F)c(C(=O)O)c(F)c1)c(O)c2Cl | 105 | 94.3 | 96 | 86.9 | 85.7 | 105 | 92.8 | 89.9 | 86.5 | 85.7 | 102 | 105 | 115 | 112 | 92.7 | 100 | 96.9 | 90.7 | 97.2 | 92.7 | 95.4 | 105 | 105 | 94.2 | 95.5 | > 10 | > 10 | > 10 | > 10 | > 10 | 0.8 | 1.9 | 0 | 0 | 0 |
| CCCCCCCCc1ccc(-c2ccc(C(=O)O)cc2)cc1 | 100 | 107 | 81.5 | 98.7 | 97.3 | – | – | – | – | – | 101 | 99.8 | 97.2 | 101 | 97.3 | 99 | 106 | 96.8 | 93 | 95 | 101 | 99.7 | 97.7 | 97.7 | 106 | > 10 | – | > 10 | > 10 | > 10 | 0 | – | 0 | 0 | 0 |
| CN1CCC(c2c[nH]c3ccc(O)cc23)CC1 | 98.7 | 100 | 95.4 | 100 | 92.1 | 91.9 | 92.8 | 87.9 | 98.7 | 90.3 | 98.5 | 96 | 94.4 | 83.4 | 100 | 98 | 103 | 98.7 | 102 | 95.8 | 105 | 102 | 98.8 | 91.7 | 101 | > 10 | > 10 | > 10 | > 10 | > 10 | 0 | 0 | 0 | 0 | 0 |
| CN1CCN(C(=O)c2cc3cc(Cl)ccc3[nH]2)CC1 | 103 | 107 | 102 | 89.9 | 109 | 110 | 89.7 | 106 | 93.7 | 93.8 | 98.1 | 104 | 92.5 | 116 | 94.8 | 99.9 | 100 | 104 | 103 | 95.6 | 97.3 | 96.3 | 98.6 | 100 | 99.8 | > 10 | > 10 | > 10 | > 10 | > 10 | 0 | 0 | 0 | 0 | 0 |
